Source: PMC6353850, “Supersensitive Odorant Receptor Underscores Pleiotropic Roles of Indoles in Mosquito Ecology” (Frontiers in Cellular Neuroscience, 2019)
Like-named read-outs stand apart in the source and are kept apart here.

Assays:
AaegOR9 [1] = target: T1, AaegOR9 (Aedes aegypti, UniProt Q177X5); parameters: method as in Bohbot et al., 2011; conditions: ref Bohbot et al., 2011; cited from earlier work
OR02-ORco [2] = tested on: OR02-ORco; parameters: method as in Wang et al., 2010; conditions: Anopheles gambiae OR02-ORco; kairomone receptor; ref Wang et al., 2010; cited from earlier work
AaegOR9 [3] = target: T1, AaegOR9; assay: Two-electrode voltage clamp of Xenopus oocytes expressing AaegOR9-ORco (tuning curve and concentration-response); type: cell-based
Protocol: The methodologies and protocols have been described in details elsewhere (Bohbot and Dickens, [2009]). AaegOr9 and Aaeg-ORco cRNAs (Bohbot et al., [2011]) were synthesized from linearized pSP64DV expression vectors using the mMESSAGE mMACHINE® SP6 kit (Life Technologies). Stage V-VII oocytes were harvested from Xenopus laevis females, mechanically separated, treated with collagenase (8 mg/mL, 30 min, 18°C) and rinsed in washing solution (96 mM NaCl, 2 mM KCl, 5 mM MgCl2 and 5 mM HEPES, pH 7.6). Oocytes were microinjected with 27.6 ng AaegOr9 and AaegORco cRNAs, incubated at 18°C for 3–4 days in ND96 solution (96 mM NaCl, 2 mM KCl, 5 mM MgCl2, 0.8 mM CaCl2 and 5 mM HEPES, pH 7.6), supplemented with 5% dialyzed horse serum, 50 μg/mL tetracycline, 100 μg/mL streptomycin and 550 μg/mL sodium pyruvate. Whole-cell currents were recorded using the two-microelectrode voltage-clamp technique. During recording sessions, the holding potential was maintained at −80 mV using an OC-725C oocyte clamp (Warner Instruments, LLC, Hamden, CT, USA). Oocytes placed in a RC-3Z oocyte recording chamber (Warner Instruments, LLC, Hamden, CT, USA) were exposed to odorants for 8 s. Current was allowed to return to baseline between odorant applications. Data acquisition and concentration-response analyses were carried out with a Digidata 1550A and the pCLAMP10 software (Molecular Devices, Sunnyvale, CA, USA), and analyzed using GraphPad Prism 7 (GraphPad Software Inc., La Jolla, CA, USA). Stock concentration of odorants (10^−2 M) were dissolved in ringer solution containing 2% dimethyl sulfoxide (DMSO) in order to solubilize the hydrophobic indolic compounds.
The response profile was established using multiple sessions, each including six compounds at a time and indole as an internal reference. […] All the response values were normalized to the indole reference in each recording session (Supplementary Figure 1).
For the establishment of the concentration-response curves, oocytes were exposed to increasing concentrations of indole, skatole and indole-3-carboxaldehyde (I3C; Supplementary Figure 2). Quantitative characterization of OR sensitivity was estimated using the averaged effective concentration at 50% of the maximal response (EC50) over the sample population. The data to establish the concentration response curve and EC50 of AaegOR10-skatole was extracted from a previous study (Bohbot and Dickens, [2012]).
We also included indole and skatole as references (Bohbot et al., [2011]). The screen was carried out using a low odorant concentration (500 nM) in order to mitigate the caveats associated with high ligand concentrations, including receptor adaptation, antagonist effects and technical artifacts such as broad molecular receptive ranges (Bohbot and Pitts, [2015]).

OR02-ORco [4] = tested on: OR02-ORco; parameters: method as in Bohbot et al., 2011; conditions: Aedes aegypti OR02-ORco; kairomone receptor; ref Bohbot et al., 2011; cited from earlier work
OR02-ORco [5] = tested on: OR02-ORco; parameters: method as in Pelletier et al., 2010; conditions: Culex quinquefasciatus OR02-ORco; kairomone receptor; ref Pelletier et al., 2010; cited from earlier work

T1 sequence (Q178U6 whole entry): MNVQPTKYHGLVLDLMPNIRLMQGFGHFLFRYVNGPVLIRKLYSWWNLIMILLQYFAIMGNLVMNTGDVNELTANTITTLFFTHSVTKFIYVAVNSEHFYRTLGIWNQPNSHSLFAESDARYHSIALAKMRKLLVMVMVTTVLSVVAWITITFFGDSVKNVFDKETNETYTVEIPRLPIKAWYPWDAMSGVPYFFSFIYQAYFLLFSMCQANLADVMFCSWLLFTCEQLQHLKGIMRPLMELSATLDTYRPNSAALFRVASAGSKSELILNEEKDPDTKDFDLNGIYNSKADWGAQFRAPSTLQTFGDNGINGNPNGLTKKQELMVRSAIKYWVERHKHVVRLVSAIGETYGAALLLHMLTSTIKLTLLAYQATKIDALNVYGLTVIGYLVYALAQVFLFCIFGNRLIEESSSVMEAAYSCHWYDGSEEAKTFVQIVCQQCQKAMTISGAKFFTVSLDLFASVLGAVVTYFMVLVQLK
T1 sequence (Q177X5 entry or part of it): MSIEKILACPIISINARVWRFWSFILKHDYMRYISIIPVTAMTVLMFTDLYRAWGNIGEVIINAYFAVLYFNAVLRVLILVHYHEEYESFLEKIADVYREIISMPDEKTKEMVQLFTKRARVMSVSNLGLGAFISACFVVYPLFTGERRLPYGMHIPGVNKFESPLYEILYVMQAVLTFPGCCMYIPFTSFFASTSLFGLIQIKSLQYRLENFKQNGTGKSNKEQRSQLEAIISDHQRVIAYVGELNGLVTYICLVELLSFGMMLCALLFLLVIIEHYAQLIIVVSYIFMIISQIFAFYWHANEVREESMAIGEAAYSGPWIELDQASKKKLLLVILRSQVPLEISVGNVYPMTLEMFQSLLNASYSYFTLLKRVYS

In the case of c1ccc2[nH]ccc2c1 [indole, 1H-indole], the “Concentration range activating AaegOR9” value (AaegOR9 [1]) is given as “low micromolar”, the EC50 (OR02-ORco [2]) is given as 167 nM and the “Ligand potency in AaegOR9 tuning curve (in words)” value (AaegOR9 [3]; 500 nM odorant, panel of 31 indole derivatives) is given as “next most potent ligands”. For the same compound, the “Rank according to potency (No.)” value (AaegOR9 [3]; AaegOR9 tuning curve of Figure 1, 500 nM, 1 = most potent of 31) was 3, the EC50 (OR02-ORco [4]) was 370 nM and the EC50 (OR02-ORco [5]) was 280 nM.
